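How tested: cells in 96-well plates exposed to compound for 48 hours at five concentrations. TGI: concentration producing complete growth inhibition.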
Columns and labels:
Assay in all cases: DTP human tumour cell line panel, 48 h
786-0 renal = tested on: 786-0 renal
A498 renal = tested on: A498 renal
A549 NSCLC = tested on: A549 NSCLC
ACHN renal = tested on: ACHN renal
CAKI-1 renal = tested on: CAKI-1 renal
CCRF-CEM leukemia = tested on: CCRF-CEM leukemia
COLO 205 colon = tested on: COLO 205 colon
DLD-1 colon = tested on: DLD-1 colon
DMS 114 small cell lung = tested on: DMS 114 small cell lung
DMS 273 small cell lung = tested on: DMS 273 small cell lung
EKVX NSCLC = tested on: EKVX NSCLC
HCC-2998 colon = tested on: HCC-2998 colon
HL-60(TB) leukemia = tested on: HL-60(TB) leukemia
HOP-18 NSCLC = tested on: HOP-18 NSCLC
HOP-62 NSCLC = tested on: HOP-62 NSCLC
HOP-92 NSCLC = tested on: HOP-92 NSCLC
HT29 colon = tested on: HT29 colon
IGROV1 ovarian = tested on: IGROV1 ovarian
K-562 leukemia = tested on: K-562 leukemia
KM12 colon = tested on: KM12 colon
KM20L2 colon = tested on: KM20L2 colon
LOX IMVI melanoma = tested on: LOX IMVI melanoma
M19-MEL melanoma = tested on: M19-MEL melanoma
MALME-3M melanoma = tested on: MALME-3M melanoma
MOLT-4 leukemia = tested on: MOLT-4 leukemia
NCI-H23 lung = tested on: NCI-H23 lung
NCI-H460 lung = tested on: NCI-H460 lung
NCI-H522 lung = tested on: NCI-H522 lung
OVCAR-3 ovarian = tested on: OVCAR-3 ovarian
OVCAR-5 ovarian = tested on: OVCAR-5 ovarian
OVCAR-8 ovarian = tested on: OVCAR-8 ovarian
RPMI-8226 leukemia = tested on: RPMI-8226 leukemia
RXF 393 renal = tested on: RXF 393 renal
RXF-631 renal = tested on: RXF-631 renal
SF-268 CNS = tested on: SF-268 CNS
SF-295 CNS = tested on: SF-295 CNS
SF-539 CNS = tested on: SF-539 CNS
SK-MEL-2 melanoma = tested on: SK-MEL-2 melanoma
SK-MEL-28 melanoma = tested on: SK-MEL-28 melanoma
SK-MEL-5 melanoma = tested on: SK-MEL-5 melanoma
SK-OV-3 ovarian = tested on: SK-OV-3 ovarian
SNB-19 CNS = tested on: SNB-19 CNS
SNB-75 CNS = tested on: SNB-75 CNS
SNB-78 CNS = tested on: SNB-78 CNS
SW-620 colon = tested on: SW-620 colon
TK-10 renal = tested on: TK-10 renal
U251 CNS = tested on: U251 CNS
UACC-257 melanoma = tested on: UACC-257 melanoma
UACC-62 melanoma = tested on: UACC-62 melanoma
UO-31 renal = tested on: UO-31 renal
HCT-116 colon = tested on: HCT-116 colon
HCT-15 colon = tested on: HCT-15 colon
LXFL 529 NSCLC = tested on: LXFL 529 NSCLC
M14 melanoma = tested on: M14 melanoma
NCI-H226 lung = tested on: NCI-H226 lung
OVCAR-4 ovarian = tested on: OVCAR-4 ovarian
SN12C renal = tested on: SN12C renal
XF 498 CNS = tested on: XF 498 CNS
SR leukemia = tested on: SR leukemia

Measured: TGI

CC(=O)NNc1ncc(C(=O)/C=C/c2ccccc2C)s1
not listed: HCT-116 colon | HCT-15 colon | LXFL 529 NSCLC | M14 melanoma | NCI-H226 lung | OVCAR-4 ovarian | SN12C renal | XF 498 CNS | SR leukemia
> 100 µM: all other assays above

COc1nc(NC2OC(COC(C)=O)C(OC(C)=O)C(OC(C)=O)C2OC(C)=O)c(N=C(C)C(C)=O)c(=O)n1C (stereo not given)
not listed: DMS 273 small cell lung | NCI-H522 lung | RXF-631 renal | SF-268 CNS | SK-MEL-28 melanoma | SR leukemia
> 100 µM: all other assays above

COC(=O)C(/C(=N/N)C(=O)Nc1cc(Cl)ccc1Cl)c1nc2ccc([N+](=O)[O-])cc2[nH]c1=O (stereo not given)
not listed: CAKI-1 renal | DLD-1 colon | HOP-18 NSCLC | M19-MEL melanoma | RXF 393 renal | RXF-631 renal | SNB-75 CNS
> 100 µM: all other assays above

Clc1ccc(-c2nnc(-c3nn(-c4ccccc4)c4nc5ccccc5nc34)o2)cc1
80.8 µM: CCRF-CEM leukemia
32.3 µM: SK-MEL-5 melanoma
64.6 µM: XF 498 CNS
81.6 µM: MOLT-4 leukemia
80.5 µM: HL-60(TB) leukemia
not listed: A498 renal | HOP-92 NSCLC | RXF-631 renal | SR leukemia
> 100 µM: all other assays above
